≈ marks a conversion by molar mass, not a printed value. Read-outs that look alike come from different tables or passages of the source.
Experiments:
Lck = Lck (Homo sapiens (Human), UniProt P06239); test: KINOMEscan enzyme binding assay (Lck); settings: KINOMEscan technology; read-out: Dissociation Constant, Lck
Experimental: (§1) Kinase enzyme binding activities of compounds disclosed herein may be determined using a proprietary assay which measures active site-directed competition binding to an immobilized ligand (Fabian, M. A. et al., Nature Biotechnol., 2005, 23:329-336). These assays may be conducted by DiscoverX (formerly Ambit; San Diego, Calif.). The percentage inhibition produced by incubation with a test compound may be calculated relative to the non-inhibited control.

p38 MAPK β = p38 MAPK β (Homo sapiens (Human), UniProt Q15759); test: KINOMEscan enzyme binding assay (p38 MAPKβ); settings: KINOMEscan technology; read-out: Dissociation Constant, p38 MAPK β
Experimental: as §1

[1] = tested on: endotoxin (LPS)-induced uveitis; test: Endotoxin-induced uveitis in rats (in vivo assay vi); set-up: species or system Lewis rats; settings: for IL-1β Anterior tissue / IL-1β Posterior tissue: LPS-stimulated rats, topical to eye; for Cell counts: eyes of LPS-stimulated rats, topical
Experimental: Male, Lewis rats (6-8 weeks old, Charles River UK Limited) are housed in cages of 3 at 19-21° C. with a 12 h light/dark cycle (07:00/19:00) and fed a standard diet of rodent chow and water ad libitum. […] Untreated rats are injected with PBS. […] Before administration, the solution or suspension to be administered is agitated for 5 minutes to ensure a uniform suspension. 6 hours after LPS dosing, animals are euthanized by overdose with pentobarbitone (i.v.). Following euthanasia, the right eye of each animal is enucleated and dissected into front (anterior) and back (posterior) sections around the lens. Each section is weighed and homogenised in 500 μL of sterile phosphate buffered saline followed by 20 minutes centrifugation at 12000 rpm at 4° C. The resulting supernatant is divided into 3 aliquots and stored at −80° C. until subsequent cytokine analysis by R&D DuoSet ELISA.

[2] = Solubility in fasted-state simulated colonic fluid (FaSSCoF); type: physicochemical; settings: thermodynamic from solid, pH 6.5, 25° C.; for solubility thermodynamic at 24 h: 25 °C, pH 6.5, fassgf or other biorelevant; for solubility at 24 h: fassgf or other biorelevant, read-out: Solubility in the FaSSCoF medium
Experimental: The solubilities of compounds of the invention in FaSSCoF at pH 6.5 are determined using a modification of a previously-reported procedure (Vertzoni, M., et al. Pharm. Res. 2010, 27, 2187-2196). In place of the bile salt extract employed in the original procedure (which extract is no longer available), the modified procedure uses a mixture of sodium taurochlorate (0.15 g), glycocholic acid (0.15 g), ursodeoxycholic acid (0.05 g), cholic acid (0.05 g), and glycodeoxycholic acid (0.05 g). These five bile acids are ground together with a mortar and pestle to produce a fine white powder that is incorporated into the FaSSCoF, as outlined below.
Tris(hydroxymethyl)aminomethane (Tris; 0.275 g) and maleic acid (0.44 g) are dissolved in water (35 mL) to give a solution whose pH is adjusted to 6.5 by treatment with 0.5M NaOH (ca. 12 mL). The solution is then made up to 50 mL with water. A portion of this Tris/maleate buffer solution (ca. 25 mL) is added to a 0.5 L round-bottomed flask, before being treated with 0.00565 g of the bile acid mixture described above. Solutions of phosphatidylcholine (0.0111 g) in DCM (0.15 mL) and palmitic acid (0.0013 g) in DCM (0.15 mL) are added, then the organic solvent is evaporated off under reduced pressure at 40° C. until a clear solution, with no perceptible DCM odour, is achieved. The volume of the evaporated solution is adjusted to 50 mL by addition of the remainder of Tris/maleate buffer, then BSA (0.115 g) is added, before being dissolved by gentle agitation.
Test compounds are suspended in the pH 6.5 FaSSCoF medium to give a maximum final concentration of ca. 6 mg/mL. The suspensions are equilibrated at 25° C. for 24 h, before being filtered through a glass fibre C filter. The filtrates are then diluted as appropriate for injection and quantification by HPLC with reference to a standard. Different volumes of the standard, diluted and undiluted sample solutions are injected and the solubilities are calculated using the peak areas determined by integration of the peak found at the same retention time as the principal peak in the standard injection.

[3] = Run 1, read-out: pH 6.5 FaSSCoF Solubility Run 1
[4] = Run 2, read-out: pH 6.5 FaSSCoF Solubility Run 2

Chain of Lck (P06239 whole entry): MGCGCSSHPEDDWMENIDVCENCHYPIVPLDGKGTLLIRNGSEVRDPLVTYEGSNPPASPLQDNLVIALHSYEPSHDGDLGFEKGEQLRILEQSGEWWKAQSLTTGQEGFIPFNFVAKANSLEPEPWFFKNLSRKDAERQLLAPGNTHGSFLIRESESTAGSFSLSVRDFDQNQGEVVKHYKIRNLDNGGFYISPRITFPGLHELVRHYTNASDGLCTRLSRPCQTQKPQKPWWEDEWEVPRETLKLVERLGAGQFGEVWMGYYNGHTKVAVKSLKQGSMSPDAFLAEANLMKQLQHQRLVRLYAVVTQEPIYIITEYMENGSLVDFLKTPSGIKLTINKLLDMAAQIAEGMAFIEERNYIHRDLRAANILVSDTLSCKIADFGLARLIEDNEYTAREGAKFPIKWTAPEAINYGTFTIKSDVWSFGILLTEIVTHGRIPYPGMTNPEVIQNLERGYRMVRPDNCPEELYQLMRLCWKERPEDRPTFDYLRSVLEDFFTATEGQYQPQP
Chain of p38 MAPK β (Q15759 whole entry): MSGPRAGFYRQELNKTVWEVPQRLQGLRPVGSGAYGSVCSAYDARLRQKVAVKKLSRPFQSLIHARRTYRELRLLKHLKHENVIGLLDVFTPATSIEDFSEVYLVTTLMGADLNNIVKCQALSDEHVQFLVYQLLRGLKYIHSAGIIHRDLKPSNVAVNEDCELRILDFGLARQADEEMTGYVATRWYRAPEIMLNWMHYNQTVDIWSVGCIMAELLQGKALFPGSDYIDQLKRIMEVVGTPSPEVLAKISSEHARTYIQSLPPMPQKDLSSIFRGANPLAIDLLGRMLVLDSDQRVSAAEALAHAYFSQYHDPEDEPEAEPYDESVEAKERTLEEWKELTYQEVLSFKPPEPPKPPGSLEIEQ

| Kd (Lck) [nM] | Kd (p38 MAPK β) [nM] | solubility thermodynamic at 24 h [2, 3] [µg/mL] | solubility thermodynamic at 24 h [2, 4] [µg/mL] | solubility at 24 h [2] [µg/mL] | Compound | also measured |
| --- | --- | --- | --- | --- | --- | --- |
| 8.6 | 340 |  |  |  | COCCOCCOCCOc1cc(Nc2cc(Oc3ccc(NC(=O)Nc4cc(C(C)(C)C)cc(S(C)(=O)=O)c4OC)c4ccccc34)ccn2)cc(OC)c1 [Example 9, 1-(5-(tert-Butyl)-2-methoxy-3-(methylsulfonyl)phenyl)-3-(4-((2-((3-methoxy-5-(2-(2-(2-methoxyethoxy)ethoxy)ethoxy)phenyl)amino)pyridin-4-yl)oxy)naphthalen-1-yl)urea] |  |
| 1.2 |  |  |  |  | COc1cc(Nc2cc(Oc3ccc(NC(=O)Nc4cc(C(C)(C)C)cc(P(C)(C)=O)c4OC)c4ccccc34)ccn2)cc(C(N)=O)c1 [Example 37, 3-((4-((4-(3-(5-(tert-butyl)-3-(dimethylphosphoryl)-2-methoxyphenyl)ureido)-naphthalen-1-yl)oxy)pyridin-2-yl)amino)-5-methoxybenzamide] | IL-1β Anterior tissue ([1]; 0.1 mg/mL): 480.1 ± 113.7 pg/mL; IL-1β Posterior tissue ([1]; 0.1 mg/mL): 319.6 ± 64.8 pg/mL; IL-1β Anterior tissue ([1]; 1 mg/mL): 330.4 ± 94.2 pg/mL; IL-1β Posterior tissue ([1]; 1 mg/mL): 285.8 ± 96.4 pg/mL; Cell counts ([1]; 0.1 mg/mL): 39.1 ± 7.1; Cell counts ([1]; 1 mg/mL): 32.6 ± 9.5; Cytokine levels in anterior and posterior segments of the eyes ([1]; rats treated with intravitreal endotoxin LPS): significantly reduced |

Continued, molecule first:

| Compound | Kd (Lck) [nM] | Kd (p38 MAPK β) [nM] | solubility thermodynamic at 24 h [2, 3] [µg/mL] | solubility thermodynamic at 24 h [2, 4] [µg/mL] | solubility at 24 h [2] [µg/mL] | also measured |
| --- | --- | --- | --- | --- | --- | --- |
| COc1c(NC(=O)Nc2ccc(Oc3ccnc(Nc4ccccc4)c3)c3ccccc23)cc(C(C)(C)C)cc1[S+](C)[O-] (racemic) [Example 12, 1-(5-(tert-Butyl)-2-methoxy-3-(methylsulfinyl)phenyl)-3-(4-((2-(phenylamino)pyridin-4-yl)oxy)naphthalen-1-yl)urea] | 3.6 | 57 |  |  |  |  |
| COc1cc(Nc2cc(Oc3ccc(NC(=O)Nc4cc(C(C)(C)C)cc([S+](C)[O-])c4OC)c4ccccc34)ccn2)ccc1C(=O)NCCN1CCOCC1 (stereo not drawn) [Example 72, 4-((4-((4-(3-(5-(tert-Butyl)-2-methoxy-3-(methylsulfinyl)phenyl)ureido)naphthalen-1-yl)oxy)pyridin-2-yl)amino)-2-methoxy-N-(2-morpholinoethyl)benzamide] |  |  | 10.7 (≈ 13.7 µM) | 11.2 (≈ 14.3 µM) | > 10 |  |
| COc1cc(Nc2cc(Oc3ccc(NC(=O)Nc4cc(C(C)(C)C)cc(CC(N)=O)c4OC)c4ccccc34)ccn2)ccc1C(=O)NCC(CO)(CO)CO [Example 73, 4-((4-((4-(3-(3-(2-Amino-2-oxoethyl)-5-(tert-butyl)-2-methoxyphenyl)ureido)naphthalen-1-yl)oxy)pyridin-2-yl)amino)-N-(3-hydroxy-2,2-bis(hydroxymethyl)propyl)-2-methoxybenzamide] |  |  | 15.2 (≈ 19.5 µM) | 16.6 (≈ 21.3 µM) | > 10 |  |
| COCCOCCOCCNC(=O)c1cc(Nc2cc(Oc3ccc(NC(=O)Nc4cc(C(C)(C)C)cc(CNC(=O)CN(C)C)c4OC)c4ccccc34)ccn2)cc(OC)c1 [Example 77, 3-((4-((4-(3-(5-(tert-Butyl)-3-((2-(dimethylamino)acetamido)methyl)-2-methoxyphenyl)ureido)naphthalen-1-yl)oxy)pyridin-2-yl)amino)-5-methoxy-N-(2-(2-(2-methoxyethoxy)ethoxy)ethyl)benzamide] |  |  | 12.3 (≈ 14.2 µM) | 13 (≈ 15 µM) | > 10 |  |
